This is an account of results in patent US20250304649A1, “SCN1B MIMETIC PEPTIDES AND USES THEREOF” (Virginia Tech Intellectual Properties, Inc., priority 2022, published 2025).

For assay [1], the system named is regulated intramembrane proteolysis (RIP) of β1 in 1610β1 cells. The assay is described as follows: Western blot of full-length β1 and C-terminal fragment (regulated intramembrane proteolysis) in 1610β1 cells. The assay is classed as cell-based, Chinese hamster. The settings on record: for CTF levels on immunoblots, peptide alone: without DAPT. How it is done:
(FIG. 8A) Representative Western blot showing 0.1% DMSO, 50 μM βadp1, 1 μM DAPT, and 50 μM+1 μM DAPT treatments at 6 hours, 24 hours, and 48 hours of treatment. Cells were plated and treated simultaneously, and then lysate was collected at the indicated 6, 24, or 48 hours. Detection of the β1 subunit was done using a c-terminal antibody “Na Channel β1 Subunit (D4Z2N) Rabbit mAb #13950” (Cell Signaling Technologies). This allowed for labeling of both the full length β1 protein (37 kD) and the C-terminal fragment (CTF) (19 kD). […] (FIG. 8B) Quantification of the 37 kD full-length β1 protein at 6, 24, and 48 hours. All results are normalized to DMSO treatment at each timepoint and then shown as a ratio of DAPT+βadp1/DAPT to account for the DAPT treatment in each. […] (FIG. 8C) Quantification of the 19 kD CTF of β1. All results are normalized to DMSO treatment at each timepoint and then shown as a ratio of DAPT+βadp1/DAPT to account for the DAPT treatment in each.
β1 abundance was further examined using Western blotting (WB) at time points of 6, 24, and 48 hours after initial βadp1 treatment. Cells were plated in 35 mm cell culture dishes and treated with 50 μM βadp1 or βS2L solubilized in a final concentration of 0.1% DMSO at the time of plating. The control was DMSO vehicle. To determine whether βadp1 affects the RIP of β1, cells were also treated with 1 μM DAPT, an inhibitor of γ-secretase, to cause an accumulation of the intermediate substrate in the RIP of β1, the CTF. Whole cell lysate was collected and run on stain free gels and transferred to a Polyvinylidene difluoride (PVDF) membrane. Membranes were labeled with an antibody against the c-terminal domain of β1 (Cell Signaling Technologies).
β1 has been reported to undergo a process of […] intramembrane proteolysis (RIP) by BACE1 and γ-secretase, ultimately resulting in the production of a soluble intracellular domain (ICD) that is translocated to the nucleus, with correlated effects on gene transcription. Applicant sought to determine if the β1 targeting peptides affect the RIP process in 1610β1 cells and whether any effect relates to changes in the distribution and abundance of β1 immunolabeling we observed in this model. First, to confirm that β1 underwent RIP in 1610β1 cells, Applicant treated cells with the y-secretase inhibitor DAPT. In the presence of DAPT, it was noted that the 19 kD Carboxyl-Terminal Fragment (CTF) accumulated in Western blots from cells sampled at 6, 24 and 48 hours following initiation of treatment, similar to results published by others in CHL cells and MDA-MB-231 breast cancer cells (FIG. 12A). Without DAPT treatment the 19 kD CTF was virtually non-detectable at any of the time points sampled (FIG. 12A). Next, Applicant co-treated cells with DAPT in the presence of βadp1 or βS2L. […]
On the technique in general: In western blotting, separated proteins are transferred to a membrane and probed.

For assay [2], the system named is β1 protein (SCN1B) in 1610β1 cells. The assay is described as follows: Confocal immunofluorescence of β1 abundance and Biotin-βadp1 uptake in 1610β1 cells. The assay is classed as cell-based, Chinese hamster. The note with it: for upregulation of β1 protein 48 hours after treatment: 50 μM; for upregulation of β1 protein 48 hours after treatment / β1 abundance (immunolabeling) at 48 hours compared to DMSO treated cells: FIG. 7; for β1 abundance (immunolabeling) at 48 hours compared to DMSO treated cells: 10 μM; for upregulation of β1 protein 48 hours after treatment / β1 abundance (immunolabeling) at 48 hours compared to DMSO treated cells / β1 abundance at cell-cell borders / in the membrane: 48 hours; for β1 abundance at cell-cell borders / in the membrane: FIG. 7D-7E. How it is done: Cells were then allowed to grow for 1-48 hours, after which they were fixed with 4% paraformaldehyde. […] White scale bar: 10 μm
FIGS. 7A-7D show 1610β1 cells treated for 48 hours with 10 μM concentrations of DMSO or βadp1 derived peptides (FIG. 7A) 0.1% DMSO, (FIG. 7B) βadp1, (FIG. 7C) LQLEED (SEQ ID NO: 4), (FIG. 7D) βS2L.
Next, the abundance of β1 protein was evaluated using confocal microscopy immunofluorescence (IF). 1610β1 cells were plated in 12 well plates on lysine coated coverslips and allowed to grow for 48 hours. Cells were then treated with a 50 μM concentration of βadp1, βS2L, βS2C, or LQLEED (SEQ ID NO: 4) or βadp1 conjugated with a Biotin molecule (B-βadp1) solubilized in a final concentration of 0.1% dimethyl sulfoxide (DMSO). Controls for the experiment were cells treated with only 0.1% DMSO vehicle. Cells were then fixed in 4% paraformaldehyde and stained with an antibody against the extracellular domain of β1 (Virginia Tech) and a streptavidin-Alexa647 (Invitrogen) conjugate to stain B-βadp1.
Applicant undertook immunolabeling studies to further probe the effect of the mimetic peptides on 1610β1 cells over time courses of up to 2 days. […] Prompted by this observation we examined what effects of 10 μM concentrations of LQLEED (SEQ ID NO: 4) and βS2L on β1 immunolabeling at or 48 hours over the same time course.

Assay [3] concerns 1610β1 cells (β1/SCN1B-mediated cell adhesion). The assay is described as follows: Electric cell-substrate impedance sensing (ECIS) of cell adhesion in 1610β1 monolayers. The assay is classed as cell-based, Chinese hamster. The settings on record: for resistance compared to vehicle over the entire time course / resistance compared to DMSO vehicle at 5 hours / resistance compared to DMSO vehicle at (up to) 20 hours / resistance compared to DMSO vehicle at 40 hours: 10 μM; for resistance compared to vehicle over the entire time course: 40 hour time course; for resistance compared to DMSO vehicle at 5 hours / resistance compared to DMSO vehicle at (up to) 20 hours / resistance compared to DMSO vehicle at 40 hours: single treatment at plating; for acute de-adhesion effects: dimerized peptides, ECIS time course. An excerpt:
FIGS. 3A-3E show βadp1 binding and identification of βadp1 derived smaller peptide fragments with similar function. […] Positive and negatively charged moieties on the adhesion surface of the β1 Ig loop are shown in red and blue (as represented in greyscale), respectively. […] Peptides towards the carboxyl terminus of βadp1, especially those incorporating hydrophobic leucine residues, show the most adhesion reducing activity. Based on the ECIS time course data, and predictions from molecular modeling of likely binding in the hydrophobic pocket β1/SCN1B Ig domain binding surface, the sequence LQLEED (SEQ ID NO: 4) was selected as a short peptide candidate drug molecule.
In this Example to evaluate the long term effects (effects after more than 2 hours post treatment) of βadp1 and derivatives on β1 cell adhesion, electric cell-substrate impedance sensing (ECIS) was employed. ECIS measures the impedance of electric current. 4000 Hz is the recommended frequency for measuring changes in impedance between cells, assaying intercellular adhesion levels, as mediated by β1. […] To assist in focusing on the active sequence of βadp1 used to create the other peptides in this disclosure, ECIS experiments were completed using multiple small sequences as shown in FIGS. 3A-3E. From this, and in combination with the in silico experiments, it was determined that LQLEED (SEQ ID NO: 4) was the optimal sequence. […] For the other dimerized peptides, ERF residues were included on the c-terminal end of the LQLEED (SEQ ID NO: 4) peptide because residue R85 in SCN1B is associated with atrial fibrillation. Cells were plated in 8 well plates lined with 40 electrodes and treated with a 10 μM concentration of βadp1 in a final concentration of 0.1% DMSO at the time of plating or DMSO vehicle.
βadp1 is a peptide mimetic of a 20 amino acid (aa) sequence from the immunoglobulin (Ig) domain of the voltage gated sodium channel (VGSC) β1 subunit involved in adhesive interactions. […] Applicant synthesized a dimerized variant of the 20 aa βadp1 (FIG. 1) and tested it in monolayers of 1610 Chinese Hamster Lung cells stably expressing the β1 subunit (1610ß1) using electric cell substrate impedance sensing (ECIS) to determine whether it acted as an agonist that promoted β1-mediated adhesion.

Assay [4] concerns Isolated guinea pig hearts. The settings on record: cited from earlier work.
Assay [5] deals with β1-mediated adhesion and gap junction-associated VGSC activity in cultured cells. The note with it: 1 to 2 hours; cited from earlier work.
Assay [6] has as its system 1610β1 cells (β1/SCN1B-mediated cell adhesion). Kind of assay: Electric cell-substrate impedance sensing (ECIS) of cell adhesion in 1610β1 monolayers. The assay is classed as cell-based, Chinese hamster.
Assay [7] concerns parental cell line of 1610 cells expressing negligible levels of β1. The assay is described as follows: ECIS in parental 1610 cells. The assay is classed as cell-based, Chinese hamster.
[8] abbreviates: isolated guinea pig hearts treated acutely.

Entries after “also recorded” stand apart in the source; their conditions may differ. Positions of bridges follow the written chain, without caps; N, C: chain ends. No end group written: not given here.

In the case of `C[C@H](NC(=O)Cc1cc(F)cc(F)c1)C(=O)N[C@H](C(=O)OC(C)(C)C)c1ccccc1` [DAPT, reference compound], the “accumulation of the 19 kD C-terminal fragment (CTF) of β1 with DAPT” value in assay [1] (1 μM DAPT, 6, 24 and 48 hours, versus no DAPT) was “accumulation of the 19KD CTF; also recorded: accumulated”.

For the molecule “CLQLEEDERF-G-LQLEEDERFC (CLQLEEDERFGLQLEEDERFC; disulfide 1-21 (inferred)) [βS2C, dimeric peptide with NT and CT cysteines, cyclizable via disulfide bonding]”, the “upregulation of β1 protein 48 hours after treatment” value in assay [2] is reported as “upregulation of β1 protein”. In addition, in assay [3], the “resistance compared to vehicle over the entire time course” value is recorded as “increased resistance throughout the time course”, the “resistance compared to DMSO vehicle at (up to) 20 hours” value is reported as “increased resistance” and the acute de-adhesion effects result is listed as “no acute de-adhesion effects detectable”. In addition, the “resistance compared to DMSO vehicle at 5 hours” value in assay [3] (5 hours) is “increase resistance; also recorded: significantly elevated over vehicle control”.

For FVKILRYENEVLQLEEDERF [βadp1], in assay [2], the “β1 abundance (immunolabeling) at 48 hours compared to DMSO treated cells” value (“β1 abundance … compared to DMSO treated cells” for short) is listed as “increase in β1 abundance”. In addition, in assay [2] (cells monitored up to 48 hours from the initial treatment), the “β1 levels at 48 hours” value is on record as “notably increased”. In addition, in assay [4] (<2 hours), the “perinexal adhesion at early time-points” value was “perinexal de-adhesion”. Also, in assay [4] (setting [8]), the conduction velocity entry was “decreased conduction velocity” and the perinexus width entry was “widened perinexus”. Further, the “resistance compared to DMSO vehicle at 5 hours” value in assay [3] (5 hours) is reported as “decrease resistance”. Further, in assay [3], the “resistance compared to DMSO vehicle at (up to) 20 hours” value is “decrease resistance; also recorded: significantly decreased resistance; also recorded: significant decreases in resistance” and the “resistance compared to DMSO vehicle at 40 hours” value was “no significant difference; also recorded: effects of βadp1 had reversed; also recorded: no longer significantly below those of controls”. Further, the ECIS-assayed adhesion entry in assay [3] (10 and 100 μM treatments) is given as “significant decreases in ECIS-assayed adhesion”. In addition, the “normalized resistance of monolayers (marker of cell adhesion mediated by β1/SCN1B) relative to control” value in assay [3] (1610 cells exogenously expressing β1/SCN1B, over 20 hours, FIG. 3D) is “significantly reduces normalized resistance”. In assay [5], the “gap junction-associated VGSC activity” value was “inhibits” and the β1-mediated adhesion result is listed as “inhibits β1-mediated adhesion”. The “regulated intramembrane proteolysis (RIP) of β1” value in assay [1] (inferred from CTF accumulation with DAPT) was “increasing the amount of RIP that β1 undergoes; also recorded: increases the RIP of β1”. In assay [1], the “CTF levels on immunoblots, peptide alone” value is “Neither βadp1 or βS2L alone appeared to have consistent effects”.

Regarding “FVKILRYENEVLQLEEDERGFVKILRYENEVLQLEEDER [Db1-βadp1, dimerized version of βadp1 with a glycine linker]”, the “concentration dependence of the increase in resistance” value in assay [6] (100 μM versus 50 μM, 24 hours) was “concentration dependent effect; also recorded: higher for 100 μM Db1-βadp1 versus the 50 μM treatment”. Besides, the “resistance compared to DMSO/vehicle control” value in assay [6] (Db1-βadp1 100 μM and 50 μM, over 24 hours of treatment, n=2, FIG. 4) is listed as “increased resistance”. Further, the “intercellular resistance in parental 1610 cells” value in assay [7] is “did not result in increased intercellular resistance”.

With “LQLEED [short monomeric peptide towards the carboxyl terminus of βadp1]”, in assay [2], the “β1 abundance … compared to DMSO treated cells” value is on record as “increase in β1 abundance; also recorded: appeared to increase” and the “β1 abundance at cell-cell borders / in the membrane” value was “occasional evidence of increased intensity of immunolabeling signal at cell borders”. The “resistance compared to DMSO vehicle at 5 hours” value in assay [3] (5 hours) was “decrease resistance; also recorded: decreased levels of intercellular resistance”. In assay [3], the “resistance compared to DMSO vehicle at (up to) 20 hours” value is “decreased resistance; also recorded: significant decreases in resistance”.

Regarding “LQLEEDERF-G-LQLEEDERF (LQLEEDERFGLQLEEDERF) [βS2L]”, in assay [2], the “β1 abundance … compared to DMSO treated cells” value is given as “increase in β1 abundance; also recorded: cell-wide increases in β1 immunolabeling”, the “upregulation of β1 protein 48 hours after treatment” value is listed as “upregulation of β1 protein” and the “β1 abundance at cell-cell borders / in the membrane” value was “increase the 1 abundance at cell-cell borders; also recorded: increase the β1 present in the membrane; also recorded: distinctive increase in signal at cell borders”. Besides, in assay [3], the “resistance compared to vehicle over the entire time course” value is listed as “increased resistance throughout the time course; also recorded: significantly increasing resistance”, the “resistance compared to DMSO vehicle at (up to) 20 hours” value was “increase resistance”, the “resistance compared to DMSO vehicle at 40 hours” value is recorded as “continues to increase resistance” and the acute de-adhesion effects entry is “no acute de-adhesion effects detectable”. Moreover, in assay [3] (5 hours), the “resistance compared to DMSO vehicle at 5 hours” value was “increase resistance; also recorded: significantly elevated over vehicle control” and the “resistance relative to that after the LQLEED inhibitory monomer” value is reported as 5-6 fold. Also, the “CTF levels on immunoblots, peptide alone” value in assay [1] is on record as “Neither βadp1 or βS2L alone appeared to have consistent effects”.
